Assay results taken from EP4775209A1 (Ascentawits Pharmaceuticals, Ltd., priority 2023, dated 2025).

Legend:
[1] = Phase I clinical trial of AST-3424 in China: blood pharmacokinetics compared with US data; type: in vivo, human; settings: human, Chinese and American patients, printed as 'almost lower than', read-out: concentrations after 8 hours
[2] = tested on: human liver cancer (HepG2-GFP) orthotopic CDX model; assay: Human liver cancer orthotopic CDX efficacy model (QW×2 regimen); type: in vivo, nude mice; settings: 1.25, 2.5, 5 mg/kg, QW×2, drug free one week, QW×2, I.V.; significant dose-effect relationship
Text: The data from this experiment correspond to the data of the HepG2 model in Example 3-1 of the aforementioned Patent Application 2 (see Table 5 and Figures 4A, 4B of this application).

[3] = tested on: HuPrime® liver cancer LI6664 subcutaneous xenograft PDX model; assay: Liver cancer LI6664 subcutaneous xenograft PDX efficacy model; type: in vivo, BALB/c nude mice; settings: all AST-3424 treatment groups (0.3, 1, 1.25 mg/kg)
[4] = tested on: human lung cancer (H460-GFP) subcutaneous CDX model; assay: Human lung cancer CDX efficacy model (QW×2 regimen); type: in vivo, nude mice; settings: QW×2, QW×2, I.V., P<0.01
Method: Images of tumor burden in mice were non-invasively collected twice a week by a Fluor Vivo Model 100 imaging system, and the mean value of tumor area in each group was calculated based on imaging analysis results. […] The data from this experiment are the data for the H460 model in Example 3-1 of the aforementioned Patent Application 2 (see Table 5 and Figure 5 of this application).

[5] = tested on: HuPrime® lung cancer LU5161 subcutaneous xenograft model
Text: For the experimental procedures and relevant evaluation indicators of the aforementioned solid tumor animal efficacy models, please refer to Examples 7, 8, and 9 in Patent Application 1, namely PCT/US2016/062114, with Publication No. WO2017/087428 (corresponding to Chinese Application CN201680044608.1, with Publication No. CN108290911B), Examples 3 and 4 in Patent Application 2, namely PCT/CN2021/078115, with Publication No. WO2022178821, and Research Literature 1. The aforementioned non-clinical animal efficacy models (PDX) mentioned in the present application are all similar to those in the aforementioned literatures, and the specific operation procedures thereof are not described herein again.
LU5161 is a HuPrime® xenograft model established from a lung tumor (small cell lung cancer) of a patient.
Efficacy was evaluated based on the relative tumor growth inhibition rate (TGI, %), and safety was evaluated based on animal body weight changes and mortality.

[6] = tested on: HuPrime® pancreatic cancer PA1280 subcutaneous xenograft model; assay: Pancreatic cancer PA1280 subcutaneous xenograft efficacy model; type: in vivo, BALB/c nude mice
Method: The drug was administered via tail vein injection once weekly for a total of three weeks, followed by one week of observation.

[7] = GLP repeated-administration toxicity study (D1+D8/21 Days) in monkeys; type: in vivo, cynomolgus monkeys
Method: In a GLP repeated-administration toxicity study in cynomolgus monkeys, AS-3424 was intravenously infused to cynomolgus monkeys at doses of 0, 0.1, 0.3, and 0.6 mg/kg over 30 minutes on Days 1, 8, 22, and 29. […] Ultimately, the highest non-severe toxic dose (HNSTD) in monkeys was determined to be 0.6 mg/kg.

solid tumors = settings: 21 patients of 39; cited from earlier work

For `C[C@H](OP(=O)(N1CC1)N1CC1)c1ccc([N+](=O)[O-])c(Oc2cccc(C(=O)N(C)C)c2)c1` [AST-3424], the concentration at 8 h [1] was < 1 ng/mL, the “effect on the orthotopic model of human liver cancer in mice” value [2] was “strong inhibitory effect” and the “tolerability (body weight changes and mortality)” value [3] was “well tolerated”. The TGI ([4]; 0.625 mg/kg, 1-week off) was 60.2%, the TGI ([4]; 1.25 mg/kg, 1 week off) was 67.2% and the TGI ([4]; 2.5 mg/kg, 1 week off) was 88%. The tumor clearance ([5]; 1 mg/kg QD×5, 2 cycles, 6 mice per group) was “the tumor in one mouse was cleared”, the “tolerability (body weight changes and mortality)” value ([5]; 1 mg/kg QD×5, 2 cycles, no animal deaths) was “well tolerated” and the “TGI (%)” value ([5]; day 29 after first administration, AST-3424 1 mg/kg QD×5, 16 days off, QD×5 (P < 0.001), ifosfamide 60 mg/kg QD×5/week for 2 weeks (p > 0.05)) was 95.62%. The mean tumor volume ([5]; day 29 after first administration, AST-3424 1 mg/kg QD×5, 16 days off, QD×5, ifosfamide 60 mg/kg QD×5/week for 2 weeks, negative control 2238.97) was 94.42 mm^3, the “tolerability (body weight changes and mortality)” value ([6]; 2.5 mg/kg once weekly for three weeks, no animal deaths, no apparent drug toxicity) was “well tolerated” and the mean tumor volume ([6]; 2.5 mg/kg tail vein once weekly for three weeks, Day 27, vehicle 475.07) was 190.34 mm^3. For the same compound, the “most prominent toxic reaction” value ([7]; 0.1, 0.3, 0.6 mg/kg on Days 1, 8, 22, 29, intestinal necrosis/hyperplasia in pathology) was “diarrhea and vomiting”, the “highest non-severe toxic dose (HNSTD)” value ([7]; 30-minute i.v. infusion on Days 1, 8, 22, 29) was 0.6 mg/kg and the “confirmed best response stable disease” value (solid tumors) was 54%.
